From PubChem BioAssay AID1996
Converted amounts (≈) assume the structure as drawn.

Conditions: buffer; pH 7.4; 200.0 µM

Row | Compound | solubility kinetic
1 | COc1ccc(C2(C)CC(C)(C)Nc3ccccc32)cc1 (stereo not given) | 5.7 µg/mL (≈ 20.3 µM)
2 | Cc1ccc(S(=O)(=O)N(C)C)cc1NC(=O)C(C)OC(=O)C1CCCCC1 (stereo not given) | > 59.5 µg/mL
3 | CCN1C(=O)CSC1=Nc1cccc(C(=O)O)c1 | > 39.6 µg/mL
4 | O=[N+]([O-])c1ccccc1Nc1c2ccccc2nc2ccccc12 | < 0.2 µg/mL
5 | Cc1ccccc1N=Cc1cccc(O)c1O | 20.9 µg/mL (≈ 92 µM)
6 | O=C(c1ccccc1)c1cc2cc(Cl)ccc2[nH]1 | < 0.5 µg/mL
7 | Cc1cccc(NC(=O)CCN2C(=O)c3ccccc3C2=O)c1 | > 46.3 µg/mL
8 | O=S(=O)(Nc1ccon1)c1cc(Cl)ccc1Cl | 43.3 µg/mL (≈ 148 µM)
9 | CCOC(=O)N1CCc2c(sc(NC(=O)CN(CC)CC)c2C#N)C1 | > 54.7 µg/mL
10 | COc1ccc(CNCc2cccn2C)cc1.Cl | > 40 µg/mL
11 | c1ccc(CCNCCCOc2cccc3ccccc23)cc1 | 37.1 µg/mL (≈ 121 µM)
12 | Cc1ccccc1CC(=O)N1CCN(C(=O)c2ccco2)CC1 | > 46.9 µg/mL
13 | CCc1ccccc1NS(=O)(=O)Cc1ccccc1 | 40.2 µg/mL (≈ 146 µM)
14 | COc1cc2c(cc1OC)C(c1cccc([N+](=O)[O-])c1)=NCC2 | > 46.8 µg/mL
15 | Nc1c(C(=O)O)cnn1-c1ccc([N+](=O)[O-])cc1 | > 37.2 µg/mL
16 | CCCc1cc(=O)[nH]c(SCc2ccc(F)cc2)n1 | 3.2 µg/mL (≈ 11.5 µM)
17 | OCCC1CN(CC2CCCCC2)CCN1C1CCCC1 (stereo not given) | 40.8 µg/mL (≈ 139 µM)
18 | CC(C)CC1NC(=O)N(CC(=O)NC2CCCc3ccccc32)C1=O (stereo not given) | 45.7 µg/mL (≈ 133 µM)
19 | Cl.c1ccc2c(c1)nc(N1CCCCC1)c1ccccc12 | 1.8 µg/mL
20 | Cl.Nc1ccn([C@H]2C[C@H](O)[C@@H](CO)O2)c(=O)n1 | > 39.6 µg/mL

Row | Compound | solubility kinetic
21 | CC(C)=CC(=O)OCC(=O)NC1CCCc2ccccc21 (stereo not given) | 25 µg/mL (≈ 87 µM)
22 | O=C(Nc1ncccc1Cl)c1cc2ccccc2o1 | 11.4 µg/mL (≈ 41.8 µM)
23 | CN=C1C([N+](=O)[O-])=CC=C2C1=NC1(CCCCC1)N2O | 10.8 µg/mL (≈ 39.1 µM)
24 | Cc1csc2c(=O)sc(NC(=O)c3cccs3)nc12 | 0.6 µg/mL (≈ 1.95 µM)
25 | O=C1CCc2ccc(OCCCCN3CCN(c4cccc(Cl)c4Cl)CC3)cc2N1 | < 0.3 µg/mL
26 | CCOc1ccc(CNC(=O)c2ccco2)cc1 | > 36.8 µg/mL
27 | COc1ccc(C)cc1COC(=O)c1[nH]c(C)c(C(C)=O)c1C | > 47.3 µg/mL
28 | O=C(O)c1ccccc1C(=O)NC1Cc2ccccc2C1 | 42.1 µg/mL (≈ 150 µM)
29 | O=C(NC(=S)Nc1ccccc1Cl)c1ccco1 | 2.5 µg/mL (≈ 8.91 µM)
30 | Cc1ccc(OCC(=O)NC2CCS(=O)(=O)C2)c(C)c1 (stereo not given) | > 44.6 µg/mL
31 | O=C(NC(=S)NCc1ccc(Cl)cc1)c1ccco1 | 10.6 µg/mL (≈ 36 µM)
32 | CC(=O)c1c(C)[nH]c(C(=O)COC(=O)Cc2ccccc2F)c1C | > 49.7 µg/mL
33 | Cc1noc(N)c1C1(O)C(=O)Nc2c(Cl)cc(Cl)cc21 (stereo not given) | > 47.1 µg/mL
34 | COC(=O)c1ccc(N2CCc3ccccc32)c([N+](=O)[O-])c1 | 1 µg/mL (≈ 3.35 µM)
35 | CC1(/[N+]([O-])=C/c2ccc(Cl)cc2Cl)CCCCC1=O (stereo not given) | 42.9 µg/mL (≈ 143 µM)
36 | O=C(O)C(NS(=O)(=O)c1cccc2nsnc12)c1ccccc1 (stereo not given) | 48.4 µg/mL (≈ 139 µM)
37 | CCOc1ccc(NC(=O)c2ccc(Cl)c(NC(=O)c3ccco3)c2)cc1 | < 0.4 µg/mL
38 | Cc1cccc(CN(C(=S)Nc2c(C)cccc2C)c2cccnc2)c1 | 16.9 µg/mL (≈ 46.7 µM)
39 | CSc1nccc(-c2c(-c3ccc(Cl)cc3)noc2C)n1 | 4.6 µg/mL (≈ 14.5 µM)
40 | CC(=O)Nc1ccc(NC(=O)C2CC(=O)N(C(C)C)C2)cc1 (stereo not given) | 43.4 µg/mL (≈ 143 µM)

Row | Compound | solubility kinetic
41 | O=C(CSc1nccc(-c2cccs2)n1)Nc1ccc(Cl)cc1 | 1.4 µg/mL (≈ 3.87 µM)
42 | Cc1nnc(SCCCCSc2nnc(C)c(=O)[nH]2)[nH]c1=O | > 51.1 µg/mL
43 | O=C(Nc1nc2ccccc2[nH]1)C1CCC1 | 6 µg/mL (≈ 27.9 µM)
44 | Cc1sc2ncnc(SCC(=O)N3CCCC(C(N)=O)C3)c2c1C (stereo not given) | 53.6 µg/mL (≈ 147 µM)
45 | OCc1ccccc1CN1CCCCCC1 | 28.8 µg/mL (≈ 131 µM)
46 | CN1CCC(N(C)C(=S)NCCc2ccccc2)CC1 | > 43.7 µg/mL
47 | Cc1cc(NC(=O)Nc2cc(Cl)sc2Cl)no1 | < 0.2 µg/mL
48 | Cc1ccc(C(=O)N2CCN(Cc3ccccc3)CC2)o1 | > 42.7 µg/mL
49 | CCC1(CC)NC(=O)N(CC(=O)Nc2ccc(C)cc2C)C1=O | > 47.6 µg/mL
50 | O=C(CN1C(=O)C2CCCCC2C1=O)Nc1cccc(C(F)(F)F)c1 (stereo not given) | > 53.1 µg/mL
51 | CSc1ncccc1C(=O)OC(C)C(=O)Nc1cccc(S(=O)(=O)N2CCOCC2)c1 (stereo not given) | 8.4 µg/mL (≈ 18 µM)
52 | CCCCN(CC)S(=O)(=O)c1ccc2c(c1)n(C)c(=O)c(=O)n2C | 2.8 µg/mL (≈ 7.92 µM)
53 | CN(C)c1nc(OCc2ccccc2)c2ncc(=O)[nH]c2n1 | 1.2 µg/mL (≈ 4.04 µM)
54 | O=C(CSc1nc2c(cnn2-c2ccccc2)c(=O)[nH]1)NCC1CCCO1 (stereo not given) | > 57.8 µg/mL
55 | O=C(NCc1ccccc1Cl)C1CC(=O)N(Cc2ccccc2)C1 (stereo not given) | > 51.4 µg/mL
56 | O=C1c2ccccc2NC(c2ccc(F)cc2)N1Cc1ccccc1 (stereo not given) | 1.4 µg/mL (≈ 4.21 µM)
57 | COc1ccc(/C=C/C(=O)NC2CC3CCC2C3)cc1 (stereo not given) | 6.9 µg/mL (≈ 25.4 µM)
58 | CCNC(=O)NC1c2ccccc2CSc2ccccc21.O (stereo not given) | 8.8 µg/mL
59 | CN1C(=O)c2ccc(C(=O)NCc3ccco3)cc2C1=O | > 42.6 µg/mL
60 | Nc1ccccc1SCCS(=O)(=O)c1ccc(Cl)cc1 | 2.2 µg/mL (≈ 6.71 µM)
